Measured values: article PMC5218480 (PLoS ONE, 2017)

Tested on: MV-4-11 cells
Assay: Gene expression microarray analysis (Affymetrix PrimeView) and GSEA
Format: cell-based, human
Parameters: RFU PODN (11730768_x_at) / Fold change /veh PODN (11730768_x_at) / RFU LINC00158 (11744669_a_at) / Fold change /veh LINC00158 (11744669_a_at) / RFU DUSP10 (11751237_a_at) / Fold change /veh DUSP10 (11751237_a_at) / RFU ID3 (11757404_x_at) / Fold change /veh ID3 (11757404_x_at) / RFU PLEKHG5 (11737974_s_at) / Fold change /veh PLEKHG5 (11737974_s_at) / RFU LRRC4B (11730491_at) / Fold change /veh LRRC4B (11730491_at) / RFU GIMAP4 (11747438_a_at) / Fold change /veh GIMAP4 (11747438_a_at) / RFU KRT8 (11758183_x_at) / Fold change /veh KRT8 (11758183_x_at) / RFU CNN1 (11734310_a_at) / Fold change /veh CNN1 (11734310_a_at) / RFU VPS37D (11726825_at) / Fold change /veh VPS37D (11726825_at) / RFU C10orf10 (11716522_x_at) / Fold change /veh C10orf10 (11716522_x_at) / RFU KIR2DL2 /// KIR2DL4 /// KIR2DL5A /// KIR2DL5B /// KIR2DS1 /// KIR2DS2 /// KIR2DS3 /// KIR2DS4 /// KIR3DL3 /// KIR3DL3 /// KIR3DS1 (11738374_at) / Fold change /veh KIR2DL2 /// KIR2DL4 /// KIR2DL5A /// KIR2DL5B /// KIR2DS1 /// KIR2DS2 /// KIR2DS3 /// KIR2DS4 /// KIR3DL3 /// KIR3DL3 /// KIR3DS1 (11738374_at) / RFU C1QL1 (11718748_at) / Fold change /veh C1QL1 (11718748_at) / RFU TMPRSS4 (11747572_a_at) / Fold change /veh TMPRSS4 (11747572_a_at) / RFU HAMP (11756126_x_at) / Fold change /veh HAMP (11756126_x_at) / RFU RNFT2 (11725882_a_at) / Fold change /veh RNFT2 (11725882_a_at) / RFU NR4A2 (11747474_a_at) / Fold change /veh NR4A2 (11747474_a_at) / RFU ABCC12 (11746883_a_at) / Fold change /veh ABCC12 (11746883_a_at) / RFU TMEM136 (11760407_x_at) / Fold change /veh TMEM136 (11760407_x_at) / RFU CLDN22 /// WWC2 (11732394_at) / Fold change /veh CLDN22 /// WWC2 (11732394_at) / RFU HLA-DPB1 (11760878_x_at) / Fold change /veh HLA-DPB1 (11760878_x_at) / RFU SPINT1 (11716480_a_at) / Fold change /veh SPINT1 (11716480_a_at) / RFU GAP43 (11754022_s_at) / Fold change /veh GAP43 (11754022_s_at) / RFU A4GNT (11735810_at) / Fold change /veh A4GNT (11735810_at) / RFU PRB3 (11715151_x_at) / Fold change /veh PRB3 (11715151_x_at) / RFU TUBB4B (11761932_at) / Fold change /veh TUBB4B (11761932_at) / RFU CAPN14 (11732068_a_at) / Fold change /veh CAPN14 (11732068_a_at) / RFU TMCC2 (11721928_a_at) / Fold change /veh TMCC2 (11721928_a_at) / RFU IRGQ (11745062_a_at) / Fold change /veh IRGQ (11745062_a_at) / RFU FAM174B (11720279_a_at) / Fold change /veh FAM174B (11720279_a_at) / RFU TMPRSS4 (11748680_a_at) / Fold change /veh TMPRSS4 (11748680_a_at) / RFU FAM212B (11763350_a_at) / Fold change /veh FAM212B (11763350_a_at) / RFU PLEKHG5 (11743358_a_at) / Fold change /veh PLEKHG5 (11743358_a_at) / RFU ZSCAN30 (11745921_a_at) / Fold change /veh ZSCAN30 (11745921_a_at) / RFU CMKLR1 (11741424_a_at) / Fold change /veh CMKLR1 (11741424_a_at) / RFU LOC101060620 /// MAPK8IP1 (11723275_at) / Fold change /veh LOC101060620 /// MAPK8IP1 (11723275_at) / RFU SPTSSB (11747773_x_at) / Fold change /veh SPTSSB (11747773_x_at) / RFU PRSS12 (11739890_at) / Fold change /veh PRSS12 (11739890_at) / RFU BIN1 (11741810_x_at) / Fold change /veh BIN1 (11741810_x_at) / RFU WNT11 (11732464_a_at) / Fold change /veh WNT11 (11732464_a_at) / RFU C10orf10 (11716521_a_at) / Fold change /veh C10orf10 (11716521_a_at) / RFU C5orf56 (11738089_at) / Fold change /veh C5orf56 (11738089_at) / RFU CYB561 (11721691_x_at) / Fold change /veh CYB561 (11721691_x_at) / RFU ANKRD19P (11752326_a_at) / Fold change /veh ANKRD19P (11752326_a_at) / RFU OR2T12 /// OR2T33 /// OR2T8 (11738714_s_at) / Fold change /veh OR2T12 /// OR2T33 /// OR2T8 (11738714_s_at) / RFU VCAN (11748164_a_at) / Fold change /veh VCAN (11748164_a_at) / RFU JSRP1 (11732532_at) / Fold change /veh JSRP1 (11732532_at) / RFU KRTAP10-11 (11738290_x_at) / Fold change /veh KRTAP10-11 (11738290_x_at) / RFU MYO3A (11730013_a_at) / Fold change /veh MYO3A (11730013_a_at) / RFU EBF3 (11725865_a_at) / Fold change /veh EBF3 (11725865_a_at) / RFU CAMK2N1 (11719241_x_at) / Fold change /veh CAMK2N1 (11719241_x_at) / RFU C5orf56 (11738088_a_at) / Fold change /veh C5orf56 (11738088_a_at) / RFU OLFML3 (11715873_a_at) / Fold change /veh OLFML3 (11715873_a_at) / RFU LOC100653217 /// NTM (11731650_a_at) / Fold change /veh LOC100653217 /// NTM (11731650_a_at) / RFU MAPK11 (11762145_a_at) / Fold change /veh MAPK11 (11762145_a_at) / RFU FIZ1 (11724087_x_at) / Fold change /veh FIZ1 (11724087_x_at) / RFU OASL (11726364_x_at) / Fold change /veh OASL (11726364_x_at) / RFU SOX15 (11748057_x_at) / Fold change /veh SOX15 (11748057_x_at) / RFU CD79A (11719716_a_at) / Fold change /veh CD79A (11719716_a_at) / RFU HIST1H1D (11736915_at) / Fold change /veh HIST1H1D (11736915_at) / RFU CASKIN2 (11723855_a_at) / Fold change /veh CASKIN2 (11723855_a_at) / RFU LOC730098 (11760151_x_at) / Fold change /veh LOC730098 (11760151_x_at) / RFU OR4N2 (11742367_at) / Fold change /veh OR4N2 (11742367_at) / RFU PRRT2 (11749266_a_at) / Fold change /veh PRRT2 (11749266_a_at) / RFU SNX32 (11753110_a_at) / Fold change /veh SNX32 (11753110_a_at) / RFU CDHR5 (11726645_a_at) / Fold change /veh CDHR5 (11726645_a_at) / RFU RCAN1 (11760418_a_at) / Fold change /veh RCAN1 (11760418_a_at) / RFU FAM167A (11723789_a_at) / Fold change /veh FAM167A (11723789_a_at) / RFU FAM26E (11764081_at) / Fold change /veh FAM26E (11764081_at) / RFU ISYNA1 (11749810_s_at) / Fold change /veh ISYNA1 (11749810_s_at) / RFU ACY1 (11761880_at) / Fold change /veh ACY1 (11761880_at) / RFU 11764098_at / Fold change /veh 11764098_at / RFU SAMD14 (11745864_x_at) / Fold change /veh SAMD14 (11745864_x_at) / RFU NPB (11741838_a_at) / Fold change /veh NPB (11741838_a_at) / RFU TMPRSS6 (11731388_a_at) / Fold change /veh TMPRSS6 (11731388_a_at) / RFU KRTAP10-2 (11738614_at) / Fold change /veh KRTAP10-2 (11738614_at) / RFU ARHGAP8 /// PRR5-ARHGAP8 (11727945_x_at) / Fold change /veh ARHGAP8 /// PRR5-ARHGAP8 (11727945_x_at) / RFU KRTAP5-7 /// NADSYN1 (11734609_at) / Fold change /veh KRTAP5-7 /// NADSYN1 (11734609_at) / RFU RASL12 (11751679_a_at) / Fold change /veh RASL12 (11751679_a_at) / RFU CDKN2B (11736163_a_at) / Fold change /veh CDKN2B (11736163_a_at) / RFU PRF1 (11729649_at) / Fold change /veh PRF1 (11729649_at) / RFU, ZNF638 /// ZNF638-IT1 / Fold change vs veh, ZNF638 /// ZNF638-IT1 / RFU, PANK3 / Fold change vs veh, PANK3 / RFU, SH3YL1 / Fold change vs veh, SH3YL1 / RFU, ZEB2 / Fold change vs veh, ZEB2 / RFU, NRIP1 / Fold change vs veh, NRIP1 / RFU, PTTG1IP / Fold change vs veh, PTTG1IP / RFU, CAPN2 / Fold change vs veh, CAPN2 / RFU, MED14 / Fold change vs veh, MED14 / RFU, SNORA58 / Fold change vs veh, SNORA58 / RFU, C1orf63 / Fold change vs veh, C1orf63 / RFU, LRRFIP1 / Fold change vs veh, LRRFIP1 / RFU, NDUFAF7 / Fold change vs veh, NDUFAF7 / RFU, SLC12A2 / Fold change vs veh, SLC12A2 / RFU, IBTK / Fold change vs veh, IBTK / RFU, ESF1 / Fold change vs veh, ESF1 / Fold change vs veh, TMEM50B / RFU, TAOK1 / Fold change vs veh, TAOK1 / RFU, ACBD3 / Fold change vs veh, ACBD3 / RFU, TMA16 / Fold change vs veh, TMA16 / RFU, RWDD3 / Fold change vs veh, RWDD3 / RFU, BCAT1 / Fold change vs veh, BCAT1 / RFU, EDEM3 / Fold change vs veh, EDEM3 / RFU, TMEM33 / Fold change vs veh, TMEM33 / RFU, WDR75 / Fold change vs veh, WDR75 / RFU, AHCTF1 / Fold change vs veh, AHCTF1 / RFU, TFRC / Fold change vs veh, TFRC / RFU, ZDHHC17 / Fold change vs veh, ZDHHC17 / RFU, NOM1 / Fold change vs veh, NOM1 / RFU, ARL8B / Fold change vs veh, ARL8B / RFU, ZBTB11 / Fold change vs veh, ZBTB11 / RFU, TAMM41 / Fold change vs veh, TAMM41 / RFU, KIAA1704 /// LOC100996395 / Fold change vs veh, KIAA1704 /// LOC100996395 / RFU, ING1 / Fold change vs veh, ING1 / RFU, TRMT61B / Fold change vs veh, TRMT61B / RFU, FUBP3 / Fold change vs veh, FUBP3 / RFU, TP53 / Fold change vs veh, TP53 / RFU, TNKS2 / Fold change vs veh, TNKS2 / RFU, ZFP14 / Fold change vs veh, ZFP14 / RFU, ACTR2 / Fold change vs veh, ACTR2 / RFU, PPP3R1 / Fold change vs veh, PPP3R1 / RFU, PIK3R1 / Fold change vs veh, PIK3R1 / RFU, HNRNPA1 / Fold change vs veh, HNRNPA1 / RFU, RNF170 / Fold change vs veh, RNF170 / RFU, ZNF28 / Fold change vs veh, ZNF28 / RFU, RNGTT / Fold change vs veh, RNGTT / RFU, OGT / Fold change vs veh, OGT / RFU, BRD1 / Fold change vs veh, BRD1 / RFU, MARS / Fold change vs veh, MARS / RFU, ZNF655 / Fold change vs veh, ZNF655 / RFU, FAHD1 / Fold change vs veh, FAHD1 / RFU, BDP1 / Fold change vs veh, BDP1 / RFU, LRRCC1 / Fold change vs veh, LRRCC1 / RFU, ARID1A / Fold change vs veh, ARID1A / RFU, ZNF146 / Fold change vs veh, ZNF146 / RFU, ZNF330 / Fold change vs veh, ZNF330 / RFU, GPN3 / Fold change vs veh, GPN3 / RFU, C9orf123 / Fold change vs veh, C9orf123 / RFU, N4BP2L2 / Fold change vs veh, N4BP2L2 / RFU, ARFIP1 / Fold change vs veh, ARFIP1 / RFU, FAM179B / Fold change vs veh, FAM179B / RFU, BCL10 / Fold change vs veh, BCL10 / RFU, UHRF1BP1L / Fold change vs veh, UHRF1BP1L / RFU, BET1 / Fold change vs veh, BET1 / RFU, CNOT2 / Fold change vs veh, CNOT2 / RFU, ZNF268 / Fold change vs veh, ZNF268 / Fold change vs veh, ZNF507 / RFU, DGCR2 / Fold change vs veh, DGCR2 / RFU, WDSUB1 / Fold change vs veh, WDSUB1 / Fold change vs veh, HSP90B1 /// MIR3652 / RFU, ADSS / Fold change vs veh, ADSS / RFU, GK / Fold change vs veh, GK / RFU, ZNF148 / Fold change vs veh, ZNF148 / RFU, TAF9 / Fold change vs veh, TAF9 / RFU, SLC1A5 / Fold change vs veh, SLC1A5 / RFU, SLMO2 / Fold change vs veh, SLMO2 / RFU, ABCC4 / Fold change vs veh, ABCC4 / RFU, LOC101060439 /// RAP1B / Fold change vs veh, LOC101060439 /// RAP1B / RFU, RFX7 / Fold change vs veh, RFX7 / RFU, GTPBP10 / Fold change vs veh, GTPBP10 / RFU, CNEP1R1 / Fold change vs veh, CNEP1R1 / RFU, BIVM-ERCC5 /// ERCC5 / Fold change vs veh, BIVM-ERCC5 /// ERCC5 / RFU, ILF3 / Fold change vs veh, ILF3 / RFU 11762660_at / Fold change /veh 11762660_at / RFU VCAN (11757783_s_at) / Fold change /veh VCAN (11757783_s_at) / RFU DDX43 (11728927_at) / Fold change /veh DDX43 (11728927_at) / RFU KRT8 (11758188_x_at) / Fold change /veh KRT8 (11758188_x_at) / RFU NKD1 (11759106_at) / Fold change /veh NKD1 (11759106_at) / RFU SRD5A1 (11742802_a_at) / Fold change /veh SRD5A1 (11742802_a_at) / RFU TPSAB1 /// TPSB2 (11721975_s_at) / Fold change /veh TPSAB1 /// TPSB2 (11721975_s_at) / RFU GSTM3 (11746129_a_at) / Fold change /veh GSTM3 (11746129_a_at) / RFU IL23R (11737362_x_at) / Fold change /veh IL23R (11737362_x_at) / RFU TMEM51 (11727254_a_at) / Fold change /veh TMEM51 (11727254_a_at) / RFU PIWIL2 (11732686_x_at) / Fold change /veh PIWIL2 (11732686_x_at) / RFU ORM1 (11744905_x_at) / Fold change /veh ORM1 (11744905_x_at) / RFU CCDC152 (11743942_at) / Fold change /veh CCDC152 (11743942_at) / RFU ECM1 (11717891_a_at) / Fold change /veh ECM1 (11717891_a_at) / RFU IL23R (11748794_a_at) / Fold change /veh IL23R (11748794_a_at) / RFU TNFAIP8L3 (11732012_x_at) / Fold change /veh TNFAIP8L3 (11732012_x_at) / RFU MBOAT4 (11741988_at) / Fold change /veh MBOAT4 (11741988_at) / RFU 11764193_at / Fold change /veh 11764193_at / RFU TMEM53 (11763286_at) / Fold change /veh TMEM53 (11763286_at) / RFU MAGEB2 (11727129_at) / Fold change /veh MAGEB2 (11727129_at) / RFU TMEM200A (11744735_a_at) / Fold change /veh TMEM200A (11744735_a_at) / RFU CCDC152 (11751479_a_at) / Fold change /veh CCDC152 (11751479_a_at) / RFU FAM211A (11726209_a_at) / Fold change /veh FAM211A (11726209_a_at) / RFU RGS16 (11746705_a_at) / Fold change /veh RGS16 (11746705_a_at) / RFU VCAN (11755009_s_at) / Fold change /veh VCAN (11755009_s_at) / RFU RHOB (11743442_s_at) / Fold change /veh RHOB (11743442_s_at) / RFU RGS16 (11720943_a_at) / Fold change /veh RGS16 (11720943_a_at) / RFU RGS16 (11720944_at) / Fold change /veh RGS16 (11720944_at) / RFU, VPS4B / Fold change vs veh, VPS4B / RFU, CREB1 / Fold change vs veh, CREB1 / RFU, DNAJC13 / Fold change vs veh, DNAJC13 / RFU, GNAQ / Fold change vs veh, GNAQ / RFU, CDK5R1 / Fold change vs veh, CDK5R1 / RFU, ZRANB3 / Fold change vs veh, ZRANB3 / RFU, CUL4A / Fold change vs veh, CUL4A / RFU, CCNY / Fold change vs veh, CCNY / RFU, UFL1 / Fold change vs veh, UFL1 / RFU, COG3 / Fold change vs veh, COG3 / RFU, DIAPH2 / Fold change vs veh, DIAPH2 / RFU, SKA2 / Fold change vs veh, SKA2 / RFU, AFF3 / Fold change vs veh, AFF3 / RFU, LMF1 / Fold change vs veh, LMF1 / RFU, IPO11 / Fold change vs veh, IPO11 / RFU, DFFB / Fold change vs veh, DFFB / RFU, FOXP1 / Fold change vs veh, FOXP1 / RFU, CARD8 / Fold change vs veh, CARD8 / RFU, STRN3 / Fold change vs veh, STRN3 / RFU, ADK / Fold change vs veh, ADK / RFU, RASSF2 / Fold change vs veh, RASSF2 / RFU, WIPF1 / Fold change vs veh, WIPF1 / RFU, LARP1B / Fold change vs veh, LARP1B / RFU, RASA1 / Fold change vs veh, RASA1 / RFU, RB1 / Fold change vs veh, RB1 / RFU, PPFIA1 / Fold change vs veh, PPFIA1 / RFU, MAT2A / Fold change vs veh, MAT2A / RFU, CCT5 / Fold change vs veh, CCT5 / RFU, WDR92 / Fold change vs veh, WDR92 / RFU, CUX1 / Fold change vs veh, CUX1 / RFU, TTC7A / Fold change vs veh, TTC7A / RFU, TMEM135 / Fold change vs veh, TMEM135 / RFU, DEPTOR / Fold change vs veh, DEPTOR / RFU, CPM / Fold change vs veh, CPM / RFU, DNAJB6 / Fold change vs veh, DNAJB6 / RFU, CACNA2D3 / Fold change vs veh, CACNA2D3 / RFU, DTX4 / Fold change vs veh, DTX4 / RFU, TFCP2 / Fold change vs veh, TFCP2 / RFU, GMCL1 /// GMCL1P1 / Fold change vs veh, GMCL1 /// GMCL1P1 / RFU, AEBP2 / Fold change vs veh, AEBP2 / RFU, SNHG1 /// SNORD22 /// SNORD25 /// SNORD26 /// SNORD27 /// SNORD28 /// SNORD29 /// SNORD31 / Fold change vs veh, SNHG1 /// SNORD22 /// SNORD25 /// SNORD26 /// SNORD27 /// SNORD28 /// SNORD29 /// SNORD31 / Fold change (Aza/veh), C12orf56 (ProbeSet 11735607_a_at) / Fold change (ACY-1035/veh), C12orf56 (ProbeSet 11735607_a_at) / Fold change (Aza/veh), FGFR1OP (ProbeSet 11751329_s_at) / Fold change (ACY-1035/veh), FGFR1OP (ProbeSet 11751329_s_at) / Fold change (Aza/veh), VPS36 (ProbeSet 11739960_a_at) / Fold change (ACY-1035/veh), VPS36 (ProbeSet 11739960_a_at) / RFU SYPL1 (11715823_x_at) / Fold change /veh SYPL1 (11715823_x_at) / RFU IGFBP7 (11715501_s_at) / Fold change /veh IGFBP7 (11715501_s_at) / RFU REEP3 (11722064_at) / Fold change /veh REEP3 (11722064_at) / RFU IGLL1 (11728026_x_at) / Fold change /veh IGLL1 (11728026_x_at): dose or concentration left out as unconfirmed
Conditions: ProbeSet 11724763_s_at; LIST D

For `Nc1ccc(-c2cccs2)cc1NC(=O)c1ccc2c(c1)cc(C1CC1)n2CCN1CCOCC1` [ACY-1035], the “RFU, DEPTOR” value was 104.61 RFU.
